Results published in ChEMBL document CHEMBL5390242, “Design, Synthesis, and Antitumor Efficacy of Substituted 2-Amino[1,2,4]triazolopyrimidines and Related Heterocycles as Dual Inhibitors for Microtubule Polymerization and Janus Kinase 2” (J Med Chem, 2023).
Calls of active or inactive are those of the source. No cut-off for these calls is given here.

Legend:
[1] = MRT (0 to t) in CD-1 mouse at 1 mg/kg,iv measured upto 24 hrs by HPLC-MS/MS analysis; format: ADME, organism-based; settings: in vivo
[2] = Toxicity in Balb/c mouse xenografted with human A549 cells assessed as effect on lung morphology at 50 mg/kg,ip administration measured after 31 days by Hematoxylin-eosin staining based microscopy; format: organism-based; settings: in vivo, 744 h, time 31 day
[3] = Toxicity in Balb/c mouse xenografted with human A549 cells assessed as effect on liver morphology at 50 mg/kg,ip administration measured after 31 days by Hematoxylin-eosin staining based microscopy; format: organism-based; settings: in vivo, 744 h, time 31 day
[4] = MRT (0 to t) in CD-1 mouse at 10 mg/kg,ip measured upto 24 hrs by HPLC-MS/MS analysis; format: ADME, organism-based; settings: in vivo
[5] = molecular target: Tyrosine-protein kinase JAK2 (Homo sapiens, UniProt O60674); test: Inhibition of JAK2 (unknown origin) using Poly-(Glu,Tyr 4:1) peptide as substrate in presence of ATP by ADP-Glo reagent based assay
Chain of Tyrosine-protein kinase JAK2 (O60674 whole entry): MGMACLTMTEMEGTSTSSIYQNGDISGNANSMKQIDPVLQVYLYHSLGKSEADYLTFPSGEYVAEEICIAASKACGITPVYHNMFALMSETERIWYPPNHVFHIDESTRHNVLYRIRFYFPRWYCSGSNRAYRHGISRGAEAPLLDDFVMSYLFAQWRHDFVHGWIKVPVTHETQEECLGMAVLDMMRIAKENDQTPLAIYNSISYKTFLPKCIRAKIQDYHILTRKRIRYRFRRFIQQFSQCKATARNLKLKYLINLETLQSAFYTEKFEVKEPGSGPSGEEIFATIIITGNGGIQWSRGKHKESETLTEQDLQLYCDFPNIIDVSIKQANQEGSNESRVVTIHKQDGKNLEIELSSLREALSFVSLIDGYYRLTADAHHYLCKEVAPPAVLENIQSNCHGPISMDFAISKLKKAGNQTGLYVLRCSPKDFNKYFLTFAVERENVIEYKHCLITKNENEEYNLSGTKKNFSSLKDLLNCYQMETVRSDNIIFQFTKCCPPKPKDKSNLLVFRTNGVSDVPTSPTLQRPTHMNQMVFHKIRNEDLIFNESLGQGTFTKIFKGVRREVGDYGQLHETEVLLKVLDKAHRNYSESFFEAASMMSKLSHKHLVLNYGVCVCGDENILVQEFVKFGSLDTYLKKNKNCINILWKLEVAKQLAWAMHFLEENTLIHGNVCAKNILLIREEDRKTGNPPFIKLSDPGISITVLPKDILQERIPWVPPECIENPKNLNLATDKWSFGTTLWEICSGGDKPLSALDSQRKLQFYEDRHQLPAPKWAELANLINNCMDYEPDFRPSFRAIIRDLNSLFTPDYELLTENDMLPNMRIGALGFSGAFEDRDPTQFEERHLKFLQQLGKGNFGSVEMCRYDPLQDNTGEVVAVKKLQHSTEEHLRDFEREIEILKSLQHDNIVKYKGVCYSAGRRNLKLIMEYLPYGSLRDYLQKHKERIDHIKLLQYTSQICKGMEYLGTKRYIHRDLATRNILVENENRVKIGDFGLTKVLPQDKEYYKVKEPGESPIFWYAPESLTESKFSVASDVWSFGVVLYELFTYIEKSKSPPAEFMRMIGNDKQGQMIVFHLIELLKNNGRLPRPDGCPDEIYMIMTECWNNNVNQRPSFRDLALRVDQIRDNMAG

[6] = Tmax in CD-1 mouse at 10 mg/kg,ip measured upto 24 hrs by HPLC-MS/MS analysis; format: ADME, organism-based; settings: in vivo
[7] = Acute toxicity in C57BL/6 mouse assessed as maximum tolerated dose administered intravenously for 5 consecutive days; settings: in vivo, route iv
A2780 = test: Antiproliferative activity against human A2780 cells assessed as cell growth inhibition incubated for 48 hrs by MTT assay; format: functional, cell-based; settings: A2780, 48 h
A549 [8] = test: Induction of apoptosis in human A549 cells at 20 uM incubated for 24 hrs by Annexin V-FITC/PI staining based flow cytometry; format: functional
[9] = Cmax in CD-1 mouse assessed as Cmax of metabolite at 10 mg/kg,ip measured upto 24 hrs by HPLC-MS/MS analysis; format: ADME, organism-based; parameters: time < 24 hrs, dose 10 mg/kg, route ip; settings: in vivo
HT-29 = test: Antiproliferative activity against human HT-29 cells assessed as cell growth inhibition incubated for 48 hrs by MTT assay; format: functional, cell-based; settings: HT-29, 48 h
MCF7 = test: cells; settings: Homo sapiens, MCF7, 48 h
Description: Antiproliferative activity against human MCF7 cells assessed as cell growth inhibition incubated for 48 hrs by MTT assay

[10] = Toxicity in Balb/c mouse xenografted with human A549 cells assessed as effect on heart morphology at 50 mg/kg,ip administration measured after 31 days by Hematoxylin-eosin staining based microscopy; format: organism-based; settings: in vivo, 744 h, time 31 day
[11] = Half life in CD-1 mouse at 10 mg/kg,ip measured upto 24 hrs by HPLC-MS/MS analysis; format: ADME, organism-based; settings: in vivo
[12] = molecular target: Tubulin beta (Homo sapiens) (UniProt P68371+Q9H4B7+Q13509+P04350+Q3ZCM7+P07437+Q13885+Q9BVA1+Q9BUF5+A6NNZ2); test: Binding affinity to beta-tubulin colchicine binding site in human A549 cells assessed as inhibition of EBI-beta-tubulin adduct band formation at 1 to 25 uM preincubated for 2 hrs followed by EBI addition measured after 1.5 hrs by EBI competition based Western blotting analysis; format: cell-based; settings: dose 1-25 µM
[13] = molecular target: JAK2-STAT3 (Homo sapiens) (UniProt O60674+P40763); test: Inhibition of JAK2/STAT3 signalling pathway in human A549 cells assessed as effect on STAT3 protein level at 5 to 20 uM incubated for 24 hrs by Western blotting analysis; format: cell-based; settings: dose 5-20 µM
A549 [14] = test: Antitumor activity against human A549 cells xenografted in Balb/c mouse assessed as reduction in tumor weight at 50 mg/kg,ip administration measured after 31 days; format: functional; parameters: scale not given: the % may be the effect or the level left; settings: time 31 day
A2780/Taxol = test: Antiproliferative activity against human A2780T cells assessed as cell growth inhibition incubated for 48 hrs by MTT assay; format: functional, cell-based
[15] = Cytotoxicity against human L02 cells assessed as cell growth inhibition incubated for 48 hrs by MTT assay; format: toxicity, cell-based
[16] = Resistance index, ratio of IC50 for antiproliferative activity against human HCT-8/VCR cells to IC50 for antiproliferative activity against human HCT-8 cells; format: functional
A549 [17] = test: Antitumor activity against human A549 cells xenografted in Balb/c mouse assessed as increase in tumor necrotic cells at 50 mg/kg,ip administration measured after 31 days by Hematoxylin-eosin staining based microscopy; format: functional, organism-based; settings: time 31.0 day
[18] = AUC (0 to infinity) in CD-1 mouse at 10 mg/kg,ip measured upto 24 hrs by HPLC-MS/MS analysis; format: ADME, organism-based; parameters: time < 24 hrs, dose 10 mg/kg, route ip; settings: in vivo
A549 [19] = test: Induction of mitochondrial membrane potential loss in human A549 cells by measuring green fluorescence at 20 nM incubated for 16 hrs by JC-1 staining based flow cytometry analysis (reference value: 0.7 %); format: functional
A549 [20] = test: Induction of apoptosis in human A549 cells assessed as early apoptotic cells at 20 nM incubated for 24 hrs by Annexin V-FITC/PI staining based flow cytometry (reference value: 4.61 %); format: functional
[21] = Tmax in CD-1 mouse at 1 mg/kg,iv measured upto 24 hrs by HPLC-MS/MS analysis; format: ADME, organism-based; settings: in vivo
CWR22R = test: Cytotoxicity against human 22Rv1 cells assessed as cell growth inhibition incubated for 48 hrs by MTT assay; format: functional, cell-based; settings: 22Rv1, 48 h

SMILES: COc1cc(-c2nccc3nc(Nc4cccc5[nH]ccc45)nn23)cc(OC)c1OC
- MRT last at 24 h [1]: 5.2 h
- Activity [2]: Non-Toxic
- Activity [3]: Non-Toxic
- MRT last at 24 h [4]: 4.6 h
- IC50 [5]: 74 nM
- Tmax [6]: 30 min
- MTD at 5 days [7]: 100 mg/kg
- IC50 (A2780): 75 nM
- Activity (A549 [8]): 80.7%
- Cmax [9]: 700.2 ng/mL
- IC50 (HT-29): 27 nM
- IC50 (MCF7): 18 nM
- Activity [10]: Non-Toxic
- half-life [11]: 330 min
- Activity [12]: Active
- inhibition [13]: inactive
- Activity (A549 [14]): 70%
- IC50 (A2780/Taxol): 20 nM
- IC50 at 48 h [15]: 339 nM
- Ratio IC50 [16]: 1.4
- Activity (A549 [17]): Active
- AUC(0-inf) [18]: 580 ng·h/mL
- Activity (A549 [19]): 44.1%
- Activity (A549 [20]): 34.6%
- Tmax [21]: 6 min
- IC50 (CWR22R): 12.4 nM
